In US7544686B2, “Piperazinylalkylpyrazole derivatives useful as selective T-type calcium channel blockers and preparation method thereof” (Korea Institute of Science and Technology, priority 2005, dated 2009) one finds inhibition and IC50 data, which are given here for 19 compounds.

In experiment [1] the target is T1, calcium channel (α1H) (Homo sapiens, UniProt O95180).
T1 construct: expressed in transfected cells; host or cells: Xenopus oocytes
Description: Inhibition of calcium channel (α1H) expressed in Xenopus oocytes (first-step screen). Particulars: read-out: % Inhibition in oocyte (100 μM). It is filed as cell-based. Here is the method:
(§1) In order to evaluate the pharmaceutical effects induced by the compounds of the present invention, the inhibitory effects were examined according to the following procedure. As the first step, those that show more than 50% of inhibition to the calcium channel (α1H) expressed in Xenopus oocytes were screened. For the second step, α1G Ca^2+ channel activities expressed in HEK 293 cells were measured to determine the effective inhibition concentration IC50.

The target of experiment [2] is T2, α1G T-type Ca^2+ channel (Homo sapiens, UniProt O43497).
T2 construct: expressed in transfected cells; host or cells: HEK293 cells, G-418 selected
T2 sequence (O43497 whole entry): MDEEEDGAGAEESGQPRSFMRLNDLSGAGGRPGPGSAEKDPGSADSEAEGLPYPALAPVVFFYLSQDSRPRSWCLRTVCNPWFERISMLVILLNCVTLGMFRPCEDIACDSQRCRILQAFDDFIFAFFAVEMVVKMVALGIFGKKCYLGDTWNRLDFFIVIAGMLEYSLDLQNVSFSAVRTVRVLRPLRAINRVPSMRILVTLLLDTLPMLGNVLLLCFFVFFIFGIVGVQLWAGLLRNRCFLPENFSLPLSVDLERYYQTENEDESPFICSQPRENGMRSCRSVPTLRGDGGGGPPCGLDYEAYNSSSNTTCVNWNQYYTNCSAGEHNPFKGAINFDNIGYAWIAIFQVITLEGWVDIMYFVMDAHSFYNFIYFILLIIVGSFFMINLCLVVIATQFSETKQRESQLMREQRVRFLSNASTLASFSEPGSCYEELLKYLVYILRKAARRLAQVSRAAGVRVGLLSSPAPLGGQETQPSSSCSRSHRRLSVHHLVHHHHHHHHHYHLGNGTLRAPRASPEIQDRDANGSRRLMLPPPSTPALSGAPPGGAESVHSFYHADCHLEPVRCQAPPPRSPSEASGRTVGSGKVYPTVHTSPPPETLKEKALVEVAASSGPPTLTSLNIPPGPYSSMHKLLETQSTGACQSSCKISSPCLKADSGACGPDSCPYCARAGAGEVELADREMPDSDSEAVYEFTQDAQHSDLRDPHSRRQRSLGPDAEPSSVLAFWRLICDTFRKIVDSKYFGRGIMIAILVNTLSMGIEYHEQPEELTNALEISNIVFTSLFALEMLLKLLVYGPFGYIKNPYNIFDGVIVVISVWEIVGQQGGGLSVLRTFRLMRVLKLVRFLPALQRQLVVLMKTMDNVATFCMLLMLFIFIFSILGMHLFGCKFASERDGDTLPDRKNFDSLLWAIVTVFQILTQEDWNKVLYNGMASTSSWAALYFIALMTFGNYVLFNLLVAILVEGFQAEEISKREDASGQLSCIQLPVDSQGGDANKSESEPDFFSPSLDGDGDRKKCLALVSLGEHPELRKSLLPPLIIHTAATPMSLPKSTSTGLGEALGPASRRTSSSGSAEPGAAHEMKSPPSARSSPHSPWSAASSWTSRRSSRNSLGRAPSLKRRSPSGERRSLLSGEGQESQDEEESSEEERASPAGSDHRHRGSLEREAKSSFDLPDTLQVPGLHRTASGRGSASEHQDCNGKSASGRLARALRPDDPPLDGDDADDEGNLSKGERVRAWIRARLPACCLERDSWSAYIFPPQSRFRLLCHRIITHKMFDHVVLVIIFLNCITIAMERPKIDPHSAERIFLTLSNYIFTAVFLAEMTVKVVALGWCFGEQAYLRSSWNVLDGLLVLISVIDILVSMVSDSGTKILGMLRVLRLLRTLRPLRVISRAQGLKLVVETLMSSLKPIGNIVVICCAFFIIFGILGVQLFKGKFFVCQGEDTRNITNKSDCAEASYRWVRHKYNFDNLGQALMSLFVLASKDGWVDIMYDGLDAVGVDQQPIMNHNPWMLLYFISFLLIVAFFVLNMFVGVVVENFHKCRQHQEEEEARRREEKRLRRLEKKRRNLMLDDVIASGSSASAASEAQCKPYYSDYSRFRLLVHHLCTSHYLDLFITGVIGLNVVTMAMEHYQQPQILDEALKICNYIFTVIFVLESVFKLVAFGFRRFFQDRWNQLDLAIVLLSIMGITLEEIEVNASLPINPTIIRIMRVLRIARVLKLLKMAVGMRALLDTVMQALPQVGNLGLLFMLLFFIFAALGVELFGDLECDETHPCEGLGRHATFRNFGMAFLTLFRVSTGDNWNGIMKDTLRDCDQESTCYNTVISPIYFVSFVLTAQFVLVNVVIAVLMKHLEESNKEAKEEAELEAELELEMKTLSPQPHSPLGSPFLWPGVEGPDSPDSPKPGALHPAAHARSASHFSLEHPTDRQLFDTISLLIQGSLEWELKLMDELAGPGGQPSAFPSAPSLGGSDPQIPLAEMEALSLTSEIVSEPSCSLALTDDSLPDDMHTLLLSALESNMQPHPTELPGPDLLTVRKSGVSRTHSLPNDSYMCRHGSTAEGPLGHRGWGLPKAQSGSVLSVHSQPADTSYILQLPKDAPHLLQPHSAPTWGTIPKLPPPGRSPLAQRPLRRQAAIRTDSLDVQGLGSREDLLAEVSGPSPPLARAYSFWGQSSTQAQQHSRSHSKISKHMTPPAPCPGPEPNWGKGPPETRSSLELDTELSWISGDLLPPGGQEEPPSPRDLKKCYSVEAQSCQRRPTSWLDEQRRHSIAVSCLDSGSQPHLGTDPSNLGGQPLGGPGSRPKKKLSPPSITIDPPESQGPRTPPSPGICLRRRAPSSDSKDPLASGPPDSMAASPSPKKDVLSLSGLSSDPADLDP
Nature of the experiment: T-type Ca2+ channel blocking activity in HEK293 cells, whole-cell patch clamp. Type of experiment: cell-based. The conditions noted are these: HEK293 cells expressing α1G; for inhibition at 10 µM: 10 μM (0.1% DMSO), peak current; for IC50: whole-cell patch clamp, -100 mV to -30 mV. On the procedure:
as §1
Measurement of T-type Ca^2+ Channel Blocking Activity of HEK293 Cells by Using Electrophysiological Method
The culture medium was prepared by adding 10% fetal bovine serum (FBS) and 1% penicillin/streptomycin (v/v) to Dulbecco's modified Eagle's medium (DMEM). The cells were cultured in an incubator having a wet condition of 95% air/5% CO2 at 37° C. The medium was replaced every 3 to 4 days and the cells were sub-cultured every week such that only the cells that expressed α1G T-type Ca^2+ channels could be grown using G-418 (0.5 mg/ml) solution. The cells that were used to measure T-type Ca^2+ channel activity were incubated on a cover slip coated by poly-L-lysine (0.5 mg/ml) every time they were sub-cultured and then recorded after 2 to 3 days. T-type Ca^2+ channel currents at the single-cell level were determined by the electrophysiological whole-cells patch clamp technique using EPC-9 amplifier (HEKA, German). Extracellular solution of NaCl 140 mM, CaCl2 2 mM, HEPES 10 mM (pH 7.4), and intracellular solution of KCl 130 mM, HEPES 10 mM, EGTA 11 mM, MgATP 5 mM (pH 7.4) were used for T-type Ca^2+ channel blocking activity. As the low voltage-activated T-type Ca^2+ channel activity protocol, a fine glass electrode of 3-4 MΩ resistance containing the above-prepared intracellular solution was inserted into a single cell to become the whole-cell recording mode, followed by fixing the potential of the cell membrane at −100 mV and measuring the inward current of the T-type Ca^2+ channel activity when […] at −30 mV (50 ms duration) every 15 seconds. Each compound was dissolved in 100% dimethylsulfoxide (DMSO) to prepare 10 mM stock solution, and then the effect of T-type Ca^2+ channel current at 1,000 fold diluted concentration of 10 μM (including 0.1% DMSO) was initially measured before IC50 values were determined by testing the effects at the concentration range for the IC50 measurement (in general, 0.1-100 μM). Specifically, cells were treated with each compound along with the extracellular solution until T-type Ca^2+ channel currents were stabilized under whole-cell voltage-clamp conditions and the inhibition level of the peak current due to the compound was calculated and expressed in percentage.

One may read the inhibition as how much of the control response was suppressed. Usually IC50 stands for the concentration that inhibits the measured activity by half. Read a low IC50 as higher potency.

T1 sequence (O95180 whole entry): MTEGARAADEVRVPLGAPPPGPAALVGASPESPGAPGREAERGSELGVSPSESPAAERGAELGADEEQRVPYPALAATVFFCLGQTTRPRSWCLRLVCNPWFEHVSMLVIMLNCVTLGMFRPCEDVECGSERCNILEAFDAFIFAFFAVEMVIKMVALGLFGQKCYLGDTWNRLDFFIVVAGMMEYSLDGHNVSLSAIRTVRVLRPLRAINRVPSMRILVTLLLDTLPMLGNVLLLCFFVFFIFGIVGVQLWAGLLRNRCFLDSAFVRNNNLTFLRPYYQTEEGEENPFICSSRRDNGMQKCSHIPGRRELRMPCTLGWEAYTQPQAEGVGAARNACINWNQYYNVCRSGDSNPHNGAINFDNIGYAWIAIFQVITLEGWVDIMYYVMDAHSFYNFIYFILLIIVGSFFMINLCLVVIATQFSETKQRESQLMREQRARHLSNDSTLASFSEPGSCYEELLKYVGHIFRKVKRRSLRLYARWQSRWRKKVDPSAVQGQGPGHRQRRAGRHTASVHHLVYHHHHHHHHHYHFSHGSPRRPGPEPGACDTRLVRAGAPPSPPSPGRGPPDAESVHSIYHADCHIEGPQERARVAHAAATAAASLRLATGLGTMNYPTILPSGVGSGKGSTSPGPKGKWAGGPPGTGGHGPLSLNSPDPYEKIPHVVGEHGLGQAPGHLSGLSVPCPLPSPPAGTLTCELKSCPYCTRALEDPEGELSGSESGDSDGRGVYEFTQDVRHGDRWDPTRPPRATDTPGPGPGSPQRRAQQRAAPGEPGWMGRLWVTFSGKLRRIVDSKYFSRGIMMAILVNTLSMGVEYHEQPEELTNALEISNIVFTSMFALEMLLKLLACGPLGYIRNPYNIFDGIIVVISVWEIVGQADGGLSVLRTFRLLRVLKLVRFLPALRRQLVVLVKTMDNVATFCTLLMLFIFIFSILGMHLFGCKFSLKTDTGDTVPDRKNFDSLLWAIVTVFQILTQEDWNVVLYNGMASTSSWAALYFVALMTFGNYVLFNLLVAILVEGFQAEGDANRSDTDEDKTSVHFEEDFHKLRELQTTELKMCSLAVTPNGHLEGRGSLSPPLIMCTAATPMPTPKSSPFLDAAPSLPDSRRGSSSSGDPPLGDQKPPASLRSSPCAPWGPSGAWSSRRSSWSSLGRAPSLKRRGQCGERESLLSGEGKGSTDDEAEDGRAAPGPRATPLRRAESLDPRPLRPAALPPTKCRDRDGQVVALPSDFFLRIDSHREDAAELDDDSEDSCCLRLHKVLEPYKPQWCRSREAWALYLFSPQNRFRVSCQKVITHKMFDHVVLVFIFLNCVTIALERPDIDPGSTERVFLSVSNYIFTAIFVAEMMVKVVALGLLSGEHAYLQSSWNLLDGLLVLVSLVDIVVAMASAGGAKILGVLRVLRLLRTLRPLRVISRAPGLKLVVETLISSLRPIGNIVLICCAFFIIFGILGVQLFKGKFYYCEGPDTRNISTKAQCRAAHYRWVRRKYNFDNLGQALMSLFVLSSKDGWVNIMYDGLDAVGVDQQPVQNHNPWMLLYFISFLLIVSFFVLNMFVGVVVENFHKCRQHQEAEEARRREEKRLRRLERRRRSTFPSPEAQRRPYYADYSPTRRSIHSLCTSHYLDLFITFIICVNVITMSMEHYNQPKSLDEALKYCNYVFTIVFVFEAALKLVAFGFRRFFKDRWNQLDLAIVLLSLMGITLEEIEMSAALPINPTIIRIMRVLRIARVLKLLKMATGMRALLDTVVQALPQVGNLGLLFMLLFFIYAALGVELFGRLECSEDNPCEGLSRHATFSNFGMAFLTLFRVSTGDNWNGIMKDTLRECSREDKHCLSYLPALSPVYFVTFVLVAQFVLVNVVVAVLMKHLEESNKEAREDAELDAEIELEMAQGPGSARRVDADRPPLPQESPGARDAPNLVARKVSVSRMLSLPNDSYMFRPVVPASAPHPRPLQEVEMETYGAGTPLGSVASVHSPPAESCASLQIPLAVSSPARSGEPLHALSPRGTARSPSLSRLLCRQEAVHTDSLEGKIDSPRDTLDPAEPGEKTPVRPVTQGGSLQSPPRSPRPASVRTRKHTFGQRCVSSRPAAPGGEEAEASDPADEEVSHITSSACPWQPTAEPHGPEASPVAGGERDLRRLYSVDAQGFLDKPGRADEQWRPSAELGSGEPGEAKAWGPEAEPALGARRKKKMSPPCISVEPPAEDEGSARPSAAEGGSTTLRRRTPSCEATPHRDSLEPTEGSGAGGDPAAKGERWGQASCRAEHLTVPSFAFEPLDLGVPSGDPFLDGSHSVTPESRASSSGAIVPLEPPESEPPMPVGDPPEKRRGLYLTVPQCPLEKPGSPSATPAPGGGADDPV

In the case of `CCCc1cc(CNCCN2CCN(c3cccc(C)c3C)CC2)nn1C(C)(C)C` [compound 15, 1-t-butyl-3-{2-[4-(2,3-dimethylphenyl)piperazin-1-yl]ethyl}aminomethyl-5-propylpyrazole], in experiment [1], the inhibition at 100 µM was 27.5%. In experiment [2], this compound yielded an inhibition at 10 µM of 79.4 ± 1.6% and an IC50 of 1430 ± 150 nM.

Turning to `CCCc1cc(CNCCN2CCN(C(c3ccccc3)c3ccc(Cl)cc3)CC2)nn1-c1ccccc1` (stereo not shown) [compound 94, 3-{2-[4-(4-chlorobenzhydryl)piperazin-1-yl]ethyl}aminomethyl-1-phenyl-5-propylpyrazole], the inhibition at 100 µM in experiment [1] is 92.9%. In experiment [2], this compound displayed an inhibition at 10 µM of 100% and an IC50 of 650 ± 30 nM.

Consider `CC(C)Cc1cc(CNCCN2CCN(C(c3ccccc3)c3ccccc3)CC2)nn1C(C)(C)C` [compound 84, 1-t-butyl-5-iso-butyl-3-{2-[4-(4-diphenylmethyl)piperazin-1-yl]ethyl}aminomethylpyrazole], for which the inhibition at 100 µM in experiment [1] came out at 40.4%. Besides, in experiment [2], 10 µM produced 89.9 ± 0.3% inhibition and half-maximal inhibition (IC50) required 2190 ± 30 nM.

With `Cc1cccc(N2CCN(CCNCc3cc(CC(C)C)n(-c4ccccc4)n3)CC2)c1C` [compound 18, 5-iso-butyl-3-{2-[4-(2,3-dimethylphenyl)piperazin-1-yl]ethyl}aminomethyl-1-phenylpyrazole], in experiment [1], the inhibition at 100 µM worked out at 92%. In experiment [2], this compound had an inhibition at 10 µM of 92.7 ± 5.7% and an IC50 of 1020 ± 100 nM.

As for `CCCc1cc(CNCCN2CCN(c3ccccc3)CC2)nn1-c1ccccc1` [compound 4, 5-propyl-1-phenyl-3-[2-(4-phenylpiperazin-1-yl)ethyl]aminomethylpyrazole], the inhibition at 100 µM in experiment [1] came out at 80.1%. In experiment [2], this compound returned an inhibition at 10 µM of 94.5 ± 2.8% and an IC50 of 300 ± 30 nM.

Regarding `Cc1cc(CNCCN2CCN(C(c3ccccc3)c3ccccc3)CC2)nn1-c1ccccc1` [compound 81, 3-{2-[4-(4-diphenylmethyl)piperazin-1-yl]ethyl}aminomethyl-5-methyl-1-phenylpyrazole], the inhibition at 100 µM in experiment [1] was found to be 95.4%. In experiment [2], this compound showed an inhibition at 10 µM of 97.4 ± 1.3% and an IC50 of 570 ± 60 nM.

On to `CCCc1cc(CNCCN2CCN(c3ccc([N+](=O)[O-])cc3)CC2)nn1-c1ccccc1` [compound 51, 3-{2-[4-(4-nitrophenyl)piperazin-1-yl]ethyl}aminomethyl-1-phenyl-5-propylpyrazole], for which the inhibition at 100 µM in experiment [1] is 51.3%. In experiment [2], this compound came in with an inhibition at 10 µM of 95.3 ± 1.4% and an IC50 of 660 ± 70 nM.

In the case of `CCCc1cc(CNCCN2CCN(C(c3ccccc3)c3ccccc3)CC2)nn1C(C)(C)C` [compound 82, 1-t-butyl-3-{2-[4-(4-diphenylmethyl)piperazin-1-yl]ethyl}aminomethyl-5-propyl pyrazole], the inhibition at 100 µM in experiment [1] worked out at 24.8%. In experiment [2], this compound showed an inhibition at 10 µM of 60.5 ± 0.6% and an IC50 of 4420 ± 890 nM.

`CCCc1cc(CNCCN2CCN(c3ccccc3F)CC2)nn1-c1ccccc1` [compound 63, 3-{2-[4-(2-fluorophenyl)piperazin-1-yl]ethyl}aminomethyl-1-phenyl-5-propylpyrazole]: the inhibition at 100 µM in experiment [1] came to 54.9%. In experiment [2], this compound yielded an inhibition at 10 µM of 93.8 ± 1.4% and an IC50 of 660 ± 40 nM.

Take `CCCc1cc(CNCCN2CCN(c3cccc(C)c3C)CC2)nn1-c1ccccc1` [compound 16, 3-{2-[4-(2,3-dimethylphenyl)piperazin-1-yl]ethyl}aminomethyl-1-phenyl-5-propylpyrazole]: in experiment [1], the inhibition at 100 µM worked out at 74.6%. In experiment [2], this compound yielded an inhibition at 10 µM of 95.9 ± 0.7% and an IC50 of 580 ± 50 nM.

With `CCCc1cc(CNCCN2CCN(c3cccc(Cl)c3)CC2)nn1-c1ccccc1` [compound 76, 3-{2-[4-(3-chlorophenyl)piperazin-1-yl]ethyl}aminomethyl-1-phenyl-5-propylpyrazole], the inhibition at 100 µM in experiment [1] was found to be 44.7%. Further, in experiment [2], the inhibition at 10 µM came out at 75.8 ± 1% and the midpoint of inhibition, the IC50, lay at 900 ± 90 nM.

As to `CCCc1cc(CNCCN2CCN(c3ccc(OC)cc3)CC2)nn1-c1ccccc1` [compound 39, 3-{2-[4-(4-methoxyphenyl)piperazin-1-yl]ethyl}aminomethyl-5-propyl-1-phenylpyrazole], the inhibition at 100 µM in experiment [1] came to 67.8%. Also, in experiment [2], the inhibition at 10 µM came out at 91.6 ± 0.5% and the IC50 is 900 ± 70 nM.

Turning to `COc1ccc(N2CCN(CCNCc3cc(C)n(-c4ccccc4)n3)CC2)cc1` [compound 37, 3-{2-[4-(4-methoxyphenyl)piperazin-1-yl]ethyl}aminomethyl-5-methyl-1-phenylpyrazole], in experiment [2], at 10 µM the inhibition was 53 ± 1.6% and the IC50 came out at 9410 ± 550 nM.

In the case of `COc1ccc(N2CCN(CCNCc3cc(CC(C)C)n(-c4ccccc4)n3)CC2)cc1` [compound 42, 5-iso-butyl-3-{2-[4-(4-methoxyphenyl)piperazin-1-yl]ethyl}aminomethyl-1-phenyl pyrazole], in experiment [1], the inhibition at 100 µM came out at 73.3%. In experiment [2], this compound returned an inhibition at 10 µM of 95.6 ± 1.8% and a half-inhibitory concentration (IC50) of 1040 ± 150 nM.

On to `CC(C)Cc1cc(CNCCN2CCN(c3ccccc3)CC2)nn1-c1ccccc1` [compound 7, 5-iso-butyl-1-phenyl-3-[2-(4-phenylpiperazin-1-yl)ethyl]aminomethylpyrazole], for which, in experiment [1], the inhibition at 100 µM is 77.1%. Moreover, in experiment [2], at 10 µM the inhibition was 87.9 ± 2.7% and the IC50 amounted to 820 ± 40 nM.

On to `CC(C)Cc1cc(CNCCN2CCN(c3ccc([N+](=O)[O-])cc3)CC2)nn1C(C)(C)C` [compound 52, 1-t-butyl-5-iso-butyl-3-{2-[4-(4-nitrophenyl)piperazin-1-yl]ethyl}aminomethylpyrazole], for which, in experiment [1], the inhibition at 100 µM came to 56.4%. The compound also showed an IC50 in experiment [2] of 1770 ± 200 nM.

In the case of `Cc1cc(CNCCN2CCN(C(c3ccccc3)c3ccc(Cl)cc3)CC2)nn1-c1ccccc1` (stereo not shown) [compound 92, 3-{2-[4-(4-chlorobenzhydryl)piperazin-1-yl]ethyl}aminomethyl-5-methyl-1-phenylpyrazole], the inhibition at 100 µM in experiment [1] came out at 34.5%. In experiment [2], this compound gave an inhibition at 10 µM of 79.2 ± 3.3% and a 50% inhibitory concentration (IC50) of 330 ± 660 nM.

For the compound `CC(C)Cc1cc(CNCCN2CCN(c3ccc([N+](=O)[O-])cc3)CC2)nn1-c1ccccc1` [compound 53, 5-iso-butyl-3-{2-[4-(4-nitrophenyl)piperazin-1-yl]ethyl}aminomethyl-1-phenylpyrazole], in experiment [1], the inhibition at 100 µM came to 74.4%. In experiment [2], this compound returned an inhibition at 10 µM of 94.8 ± 1.3% and an IC50 of 1060 ± 20 nM.

On to `CCCc1cc(CNCCN2CCN(C(c3ccccc3)c3ccccc3)CC2)nn1-c1ccccc1` [compound 83, 3-{2-[4-(4-diphenylmethyl)piperazin-1-yl]ethyl}aminomethyl-1-phenyl-5-propylpyrazole], for which the inhibition at 100 µM in experiment [1] amounted to 97.8%. In addition, in experiment [2], testing at 10 µM gave an inhibition of 92.4 ± 1.8% and the midpoint of inhibition, the IC50, lay at 300 ± 40 nM.
